Tests used:
[1] = target: T-complex protein 1 subunit epsilon (Homo sapiens) (UniProt P48643); note: assay method not described here
[2] = target: Large ribosomal subunit protein uL15 (Homo sapiens) (UniProt P46776); note: assay method not described here
Ephrin type-A receptor 1 = Ephrin type-A receptor 1 (Homo sapiens, UniProt P21709); assay: Inhibition of Nano Luc-fused full length C-terminal EPHA1 (unknown origin) expressed in HEK293T cells using NanoGlo as substrate incubated for 2 hrs in presence of tracer by NanoBRET assay; assay type: cell-based
[3] = target: Pyridoxal kinase (Homo sapiens) (UniProt O00764); note: assay method not described here
[4] = target: Protein YIPF5 (Homo sapiens) (UniProt Q969M3); note: assay method not described here
[5] = target: Low molecular weight phosphotyrosine protein phosphatase (Homo sapiens) (UniProt P24666); note: assay method not described here
[6] = target: Ribosomal protein S6 kinase alpha-3 (Homo sapiens) (UniProt P51812); note: assay method not described here
[7] = target: Pre-mRNA-processing factor 40 homolog A (Homo sapiens) (UniProt O75400); note: assay method not described here
[8] = target: Translation initiation factor eIF2B subunit gamma (Homo sapiens) (UniProt Q9NR50); note: assay method not described here
[9] = target: Cullin-associated NEDD8-dissociated protein 1 (Homo sapiens) (UniProt Q86VP6); note: assay method not described here
[10] = target: Protein Aster-A (Homo sapiens) (UniProt Q96CP6); note: assay method not described here
[11] = target: ER lumen protein-retaining receptor 2 (Homo sapiens) (UniProt P33947); note: assay method not described here
[12] = target: Prothymosin alpha (Homo sapiens) (UniProt P06454); note: assay method not described here
[13] = target: Ras association domain-containing protein 2 (Homo sapiens) (UniProt P50749); note: assay method not described here
Erlin-1 (Homo sapiens) = Erlin-1 (Homo sapiens) (UniProt O75477)
[14] = target: Large ribosomal subunit protein uL1 (Homo sapiens) (UniProt P62906)
[15] = target: Eukaryotic translation initiation factor 4H (Homo sapiens) (UniProt Q15056); note: assay method not described here
[16] = target: 26S proteasome regulatory subunit 6B (Homo sapiens) (UniProt P43686); note: assay method not described here
Ephrin type-A receptor 7 = Ephrin type-A receptor 7 (Homo sapiens, UniProt Q15375); assay: Inhibition of Nano Luc-fused full length C-terminal EPHA7 (unknown origin) expressed in HEK293T cells using NanoGlo as substrate incubated for 2 hrs in presence of tracer by NanoBRET assay; assay type: cell-based
[17] = target: Polyadenylate-binding protein-interacting protein 1 (Homo sapiens) (UniProt Q9H074); note: assay method not described here
[18] = target: Dihydropyrimidinase-related protein 3 (Homo sapiens) (UniProt Q14195); note: assay method not described here
[19] = target: TELO2-interacting protein 1 homolog (Homo sapiens) (UniProt O43156); note: assay method not described here
[20] = target: AP-1 complex subunit mu-1 (Homo sapiens) (UniProt Q9BXS5); note: assay method not described here
[21] = target: Insulin-like growth factor 1 receptor (Homo sapiens) (UniProt P08069); note: assay method not described here
[22] = target: Cyclin-dependent kinase 12 (Homo sapiens) (UniProt Q9NYV4); note: assay method not described here
[23] = target: Exocyst complex component 4 (Homo sapiens) (UniProt Q96A65); note: assay method not described here
[24] = target: Protein MAL2 (Homo sapiens) (UniProt Q969L2); note: assay method not described here
[25] = target: Reticulon-4 (Homo sapiens) (UniProt Q9NQC3); note: assay method not described here
[26] = target: E3 ubiquitin-protein ligase RNF213 (Homo sapiens) (UniProt Q63HN8); note: assay method not described here
[27] = target: MAP kinase-activated protein kinase 2 (Homo sapiens) (UniProt P49137); note: assay method not described here
[28] = target: Actin-related protein 2/3 complex subunit 3 (Homo sapiens) (UniProt O15145); note: assay method not described here
[29] = target: GSK3B-interacting protein (Homo sapiens) (UniProt Q9P0R6); note: assay method not described here
[30] = target: Non-receptor tyrosine-protein kinase TYK2 (Homo sapiens) (UniProt P29597); note: assay method not described here
[31] = target: Small ribosomal subunit protein eS19 (Homo sapiens) (UniProt P39019); note: assay method not described here
[32] = target: ATP synthase F(0) complex subunit f, mitochondrial (Homo sapiens) (UniProt P56134); note: assay method not described here
[33] = target: Proto-oncogene tyrosine-protein kinase receptor Ret (Homo sapiens) (UniProt P07949); note: assay method not described here
[34] = target: Mitogen-activated protein kinase kinase kinase 6 (Homo sapiens) (UniProt O95382); note: assay method not described here
Titin (Homo sapiens) = Titin (Homo sapiens) (UniProt Q8WZ42)
[35] = target: Dual specificity mitogen-activated protein kinase kinase 2 (Homo sapiens) (UniProt P36507); note: assay method not described here
[36] = target: Serine/threonine-protein kinase Nek2 (Homo sapiens) (UniProt P51955); note: assay method not described here
[37] = target: Vesicle-trafficking protein SEC22b (Homo sapiens) (UniProt O75396); note: assay method not described here
[38] = target: Small ribosomal subunit protein uS10 (Homo sapiens) (UniProt P60866); note: assay method not described here
[39] = target: Small nuclear ribonucleoprotein Sm D2 (Homo sapiens) (UniProt P62316); note: assay method not described here
[40] = target: Exportin-5 (Homo sapiens) (UniProt Q9HAV4); note: assay method not described here
Throughout, for ED50: assay method not described here.

Chain of Protein Aster-A (Homo sapiens) (Q96CP6 whole entry): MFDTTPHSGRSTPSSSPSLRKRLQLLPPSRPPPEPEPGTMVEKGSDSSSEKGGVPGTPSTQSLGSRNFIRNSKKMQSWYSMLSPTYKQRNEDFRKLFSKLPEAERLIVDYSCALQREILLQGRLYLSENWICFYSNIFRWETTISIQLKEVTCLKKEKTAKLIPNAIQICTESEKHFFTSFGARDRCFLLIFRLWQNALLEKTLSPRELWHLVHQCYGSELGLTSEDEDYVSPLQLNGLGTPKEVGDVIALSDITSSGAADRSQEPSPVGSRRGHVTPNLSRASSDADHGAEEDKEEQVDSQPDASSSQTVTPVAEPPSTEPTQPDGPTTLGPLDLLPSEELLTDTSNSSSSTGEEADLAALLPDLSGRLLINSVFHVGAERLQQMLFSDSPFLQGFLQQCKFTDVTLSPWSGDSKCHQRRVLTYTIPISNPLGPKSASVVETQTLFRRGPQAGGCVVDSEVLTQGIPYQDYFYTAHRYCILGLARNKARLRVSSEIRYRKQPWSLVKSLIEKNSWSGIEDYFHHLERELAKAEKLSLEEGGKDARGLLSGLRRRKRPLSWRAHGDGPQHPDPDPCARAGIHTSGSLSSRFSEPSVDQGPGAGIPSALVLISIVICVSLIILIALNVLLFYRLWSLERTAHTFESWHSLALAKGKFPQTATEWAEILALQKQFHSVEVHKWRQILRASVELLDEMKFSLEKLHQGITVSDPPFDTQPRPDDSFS
Chain of Exportin-5 (Homo sapiens) (Q9HAV4 whole entry): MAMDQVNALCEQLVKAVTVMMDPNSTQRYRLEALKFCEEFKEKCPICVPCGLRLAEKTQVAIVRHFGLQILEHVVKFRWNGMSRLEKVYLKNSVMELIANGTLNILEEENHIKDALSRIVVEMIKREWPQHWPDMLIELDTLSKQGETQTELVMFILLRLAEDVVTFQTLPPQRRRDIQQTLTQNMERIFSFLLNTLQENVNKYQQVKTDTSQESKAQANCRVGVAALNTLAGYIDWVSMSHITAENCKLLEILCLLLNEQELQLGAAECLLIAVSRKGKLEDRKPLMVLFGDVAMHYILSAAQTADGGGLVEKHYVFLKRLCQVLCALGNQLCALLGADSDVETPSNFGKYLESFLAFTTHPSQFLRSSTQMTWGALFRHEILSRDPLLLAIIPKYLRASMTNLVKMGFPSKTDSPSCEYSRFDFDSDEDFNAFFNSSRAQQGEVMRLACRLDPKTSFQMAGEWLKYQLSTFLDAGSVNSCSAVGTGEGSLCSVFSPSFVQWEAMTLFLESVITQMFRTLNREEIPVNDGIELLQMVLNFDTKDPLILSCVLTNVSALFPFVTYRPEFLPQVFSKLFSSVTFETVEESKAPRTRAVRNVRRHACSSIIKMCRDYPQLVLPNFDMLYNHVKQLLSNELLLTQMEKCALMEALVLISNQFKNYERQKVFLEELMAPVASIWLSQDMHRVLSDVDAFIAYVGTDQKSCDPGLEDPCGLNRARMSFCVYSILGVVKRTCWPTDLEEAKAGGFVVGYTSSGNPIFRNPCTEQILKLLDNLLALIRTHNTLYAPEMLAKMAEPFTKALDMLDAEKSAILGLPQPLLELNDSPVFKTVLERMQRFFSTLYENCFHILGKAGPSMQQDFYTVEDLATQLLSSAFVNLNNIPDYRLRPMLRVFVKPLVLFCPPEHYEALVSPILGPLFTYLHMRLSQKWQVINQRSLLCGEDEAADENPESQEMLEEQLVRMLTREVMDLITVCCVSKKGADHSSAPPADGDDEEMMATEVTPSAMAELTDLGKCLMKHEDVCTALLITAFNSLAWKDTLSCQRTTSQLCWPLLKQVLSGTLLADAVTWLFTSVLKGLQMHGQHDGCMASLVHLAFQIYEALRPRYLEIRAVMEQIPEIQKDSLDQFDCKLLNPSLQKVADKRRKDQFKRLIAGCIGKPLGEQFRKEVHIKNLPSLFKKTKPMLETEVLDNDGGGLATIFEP
Chain of Proto-oncogene tyrosine-protein kinase receptor Ret (Homo sapiens) (P07949 whole entry): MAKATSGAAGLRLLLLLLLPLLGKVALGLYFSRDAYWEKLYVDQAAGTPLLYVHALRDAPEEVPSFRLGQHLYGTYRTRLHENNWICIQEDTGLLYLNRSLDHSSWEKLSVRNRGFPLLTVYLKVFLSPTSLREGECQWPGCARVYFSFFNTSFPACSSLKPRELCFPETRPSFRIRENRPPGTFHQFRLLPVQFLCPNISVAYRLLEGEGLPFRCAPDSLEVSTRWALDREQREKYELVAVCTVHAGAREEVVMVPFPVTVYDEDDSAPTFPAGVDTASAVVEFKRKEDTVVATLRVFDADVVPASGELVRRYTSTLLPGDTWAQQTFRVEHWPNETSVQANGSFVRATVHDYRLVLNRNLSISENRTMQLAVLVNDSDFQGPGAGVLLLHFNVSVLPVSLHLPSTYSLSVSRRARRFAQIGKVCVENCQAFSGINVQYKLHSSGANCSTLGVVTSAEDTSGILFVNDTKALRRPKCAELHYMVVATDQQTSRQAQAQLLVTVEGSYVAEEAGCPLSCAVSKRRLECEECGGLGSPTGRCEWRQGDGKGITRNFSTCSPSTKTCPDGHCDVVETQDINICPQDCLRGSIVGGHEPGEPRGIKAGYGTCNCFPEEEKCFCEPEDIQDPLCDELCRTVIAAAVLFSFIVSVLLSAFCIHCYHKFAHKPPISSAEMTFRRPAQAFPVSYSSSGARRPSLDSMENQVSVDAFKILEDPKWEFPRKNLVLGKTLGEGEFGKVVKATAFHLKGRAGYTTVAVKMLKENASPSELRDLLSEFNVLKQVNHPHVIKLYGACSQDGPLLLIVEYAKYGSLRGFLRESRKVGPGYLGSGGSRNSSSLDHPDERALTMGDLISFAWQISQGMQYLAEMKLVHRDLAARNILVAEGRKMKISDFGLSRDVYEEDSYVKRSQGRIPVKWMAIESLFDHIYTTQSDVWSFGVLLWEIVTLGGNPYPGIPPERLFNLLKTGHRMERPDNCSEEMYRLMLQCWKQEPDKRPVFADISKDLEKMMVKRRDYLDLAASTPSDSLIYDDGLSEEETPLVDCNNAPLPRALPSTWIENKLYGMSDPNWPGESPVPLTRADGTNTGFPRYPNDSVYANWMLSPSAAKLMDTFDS
Chain of MAP kinase-activated protein kinase 2 (Homo sapiens) (P49137 whole entry, looked up): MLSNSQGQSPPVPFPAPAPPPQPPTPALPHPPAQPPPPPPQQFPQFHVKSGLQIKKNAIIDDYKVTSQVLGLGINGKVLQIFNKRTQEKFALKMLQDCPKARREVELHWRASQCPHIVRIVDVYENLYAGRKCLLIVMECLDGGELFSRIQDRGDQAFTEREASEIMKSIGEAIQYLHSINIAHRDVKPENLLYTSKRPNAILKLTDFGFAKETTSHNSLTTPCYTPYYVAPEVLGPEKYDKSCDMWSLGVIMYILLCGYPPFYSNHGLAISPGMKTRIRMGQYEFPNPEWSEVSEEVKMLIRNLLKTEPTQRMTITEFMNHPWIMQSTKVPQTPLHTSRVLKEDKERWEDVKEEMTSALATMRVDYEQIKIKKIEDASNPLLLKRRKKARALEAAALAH
Chain of ER lumen protein-retaining receptor 2 (Homo sapiens) (P33947 whole entry): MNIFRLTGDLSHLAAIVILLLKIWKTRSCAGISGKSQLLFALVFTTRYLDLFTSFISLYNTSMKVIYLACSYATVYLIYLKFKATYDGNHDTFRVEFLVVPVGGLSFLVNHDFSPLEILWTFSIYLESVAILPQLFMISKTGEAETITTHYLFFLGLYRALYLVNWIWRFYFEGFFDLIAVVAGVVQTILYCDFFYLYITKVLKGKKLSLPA
Chain of Ribosomal protein S6 kinase alpha-3 (Homo sapiens) (P51812 whole entry): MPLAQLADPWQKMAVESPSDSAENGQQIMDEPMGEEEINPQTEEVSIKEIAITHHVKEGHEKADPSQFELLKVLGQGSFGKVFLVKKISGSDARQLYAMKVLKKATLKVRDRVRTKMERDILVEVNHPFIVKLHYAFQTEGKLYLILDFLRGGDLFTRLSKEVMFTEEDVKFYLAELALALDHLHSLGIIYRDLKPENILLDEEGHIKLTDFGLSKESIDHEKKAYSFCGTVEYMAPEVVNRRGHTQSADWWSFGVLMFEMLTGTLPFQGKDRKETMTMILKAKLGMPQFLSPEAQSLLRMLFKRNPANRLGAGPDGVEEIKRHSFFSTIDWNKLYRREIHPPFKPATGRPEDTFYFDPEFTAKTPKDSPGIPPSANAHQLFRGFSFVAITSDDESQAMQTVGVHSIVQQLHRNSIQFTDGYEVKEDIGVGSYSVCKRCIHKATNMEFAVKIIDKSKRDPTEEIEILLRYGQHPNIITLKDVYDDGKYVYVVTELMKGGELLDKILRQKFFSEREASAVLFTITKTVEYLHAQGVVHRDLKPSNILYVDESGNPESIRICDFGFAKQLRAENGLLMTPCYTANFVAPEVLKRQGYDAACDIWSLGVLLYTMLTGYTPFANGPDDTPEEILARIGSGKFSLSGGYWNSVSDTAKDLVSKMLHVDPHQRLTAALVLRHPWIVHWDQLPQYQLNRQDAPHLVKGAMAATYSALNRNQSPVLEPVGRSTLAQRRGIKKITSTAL
Chain of Protein YIPF5 (Homo sapiens) (Q969M3 whole entry): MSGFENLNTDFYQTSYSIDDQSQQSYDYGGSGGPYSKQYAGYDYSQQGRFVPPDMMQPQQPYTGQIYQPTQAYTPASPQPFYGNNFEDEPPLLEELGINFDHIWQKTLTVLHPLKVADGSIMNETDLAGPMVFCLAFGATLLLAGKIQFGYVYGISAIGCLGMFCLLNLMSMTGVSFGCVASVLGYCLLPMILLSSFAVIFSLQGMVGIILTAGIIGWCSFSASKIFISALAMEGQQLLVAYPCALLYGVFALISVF
Chain of Small nuclear ribonucleoprotein Sm D2 (Homo sapiens) (P62316 whole entry): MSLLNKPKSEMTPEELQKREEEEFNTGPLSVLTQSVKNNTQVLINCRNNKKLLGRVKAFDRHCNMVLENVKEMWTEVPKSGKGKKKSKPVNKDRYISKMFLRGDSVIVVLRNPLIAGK

## Cc1ccc(C(=O)Nc2cccc(C(F)(F)F)c2)cc1Nc1nc(-c2cccnc2)nc2c1cnn2C
[1]
  ED50: 0.000216 µM
[2]
  ED50: 5.95 µM
Ephrin type-A receptor 1
  IC50: 0.303 µM
[3]
  ED50: 0.00509 µM
[4]
  ED50: 1.94 µM
[5]
  ED50: 67.2 µM
[6]
  ED50: 0.00528 µM
[7]
  ED50: 0.0134 µM
[8]
  ED50: 10.3 µM
[9]
  ED50: 0.11 µM
[10]
  ED50: 29.6 µM
[11]
  ED50: 0.109 µM
[12]
  ED50: 11.1 µM
[13]
  ED50: 0.0164 µM
Erlin-1 (Homo sapiens)
  ED50: 0.367 µM
Homo sapiens
  ED50: 70 µM
[14]
  ED50: 0.577 µM
[15]
  ED50: 90.6 µM
[16]
  ED50: 6.14 µM
Ephrin type-A receptor 7
  IC50: > 50 µM
[17]
  ED50: 13.9 µM
[18]
  ED50: 0.379 µM
[19]
  ED50: 4370 µM
[20]
  ED50: 0.0552 µM
[21]
  ED50: 0.0179 µM
[22]
  ED50: 0.00103 µM
[23]
  ED50: 11.4 µM
[24]
  ED50: 0.177 µM
[25]
  ED50: 0.00531 µM
[26]
  ED50: 53.8 µM
[27]
  ED50: 0.549 µM
[28]
  ED50: 3.47 µM
[29]
  ED50: 0.0291 µM
[30]
  ED50: 69.7 µM
[31]
  ED50: 0.645 µM
[32]
  ED50: 0.0206 µM
[33]
  ED50: 5.11 µM
[34]
  ED50: 1.26 µM
Titin (Homo sapiens)
  ED50: 0.0522 µM
[35]
  ED50: 0.0127 µM
[36]
  ED50: 0.011 µM
[37]
  ED50: 103 µM
[38]
  ED50: 0.371 µM
[39]
  ED50: 42.7 µM
[40]
  ED50: 0.0475 µM

## Cc1ccc(C(=O)Nc2cccc(C(F)(F)F)c2)cc1Nc1nc(-c2cccnc2)nc2nn(C)cc12
[1]
  ED50: 0.0516 µM
[2]
  ED50: 16.7 µM
Ephrin type-A receptor 1
  IC50: 16.8 µM
[3]
  ED50: 1.19 µM
[4]
  ED50: 0.0595 µM
[5]
  ED50: 0.0395 µM
[6]
  ED50: 7.92 µM
[7]
  ED50: 0.0135 µM
[8]
  ED50: 0.332 µM
[9]
  ED50: 1.74 µM
[10]
  ED50: 0.495 µM
[11]
  ED50: 0.051 µM
[12]
  ED50: 19.9 µM
[13]
  ED50: 3.43 µM
Erlin-1 (Homo sapiens)
  ED50: 0.00442 µM
Homo sapiens
  ED50: 17.7 µM
[14]
  ED50: 8.92 µM
[15]
  ED50: 10.8 µM
[16]
  ED50: 0.508 µM
Ephrin type-A receptor 7
  IC50: > 50 µM
[17]
  ED50: 0.00552 µM
[18]
  ED50: 0.639 µM
[19]
  ED50: 0.00118 µM
[20]
  ED50: 0.0914 µM
[21]
  ED50: 8.2 µM
[22]
  ED50: 0.435 µM
[23]
  ED50: 0.0488 µM
[24]
  ED50: 1.68 µM
[25]
  ED50: 3.55 µM
[26]
  ED50: 0.595 µM
[27]
  ED50: 0.0517 µM
[28]
  ED50: 0.0666 µM
[29]
  ED50: 1.81 µM
[30]
  ED50: 1.13 µM
[31]
  ED50: 0.199 µM
[32]
  ED50: 0.002 µM
[33]
  ED50: 0.0063 µM
[34]
  ED50: 8.27 µM
Titin (Homo sapiens)
  ED50: 0.0126 µM
[35]
  ED50: 2.14 µM
[36]
  ED50: 0.324 µM
[37]
  ED50: 3.32 µM
[38]
  ED50: 3.63 µM
[39]
  ED50: 9770 µM
[40]
  ED50: 3.69 µM

From ChEMBL document CHEMBL5649169 (ChemMedChem, 2018)
